Reference: article PMC10673058, “In Silico and In Vitro Search for Dual Inhibitors of the Trypanosoma brucei and Leishmania major Pteridine Reductase 1 and Dihydrofolate Reductase” (Molecules, 2023)
Where two headings read alike, the source gives them in different places.

What was measured:
Type in all cases: biochemical
[1] = target: T1, TbPTR1 (Trypanosoma brucei brucei, UniProt O76290); test: Spectrophotometric enzyme inhibition assay, recombinant TbPTR1; conditions: for EC50: read-out: EC50 TbPTR1 (footnote a)
T1 construct: His6 (N); made in house; host or cells: E. coli BL21 (DE3), vector pET 15b::TbPTR1His (strain from the group of M. Paola Costi, Modena)
T1 sequence (O76290 1-268): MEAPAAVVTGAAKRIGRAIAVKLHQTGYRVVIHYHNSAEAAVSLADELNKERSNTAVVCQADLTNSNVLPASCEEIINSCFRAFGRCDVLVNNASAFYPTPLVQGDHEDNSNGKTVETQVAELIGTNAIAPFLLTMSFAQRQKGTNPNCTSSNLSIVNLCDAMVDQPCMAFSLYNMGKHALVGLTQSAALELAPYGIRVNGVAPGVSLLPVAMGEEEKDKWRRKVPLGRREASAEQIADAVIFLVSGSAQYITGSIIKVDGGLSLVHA
Method: (§1) Based on the in vitro assays against TbPTR1 and LmPTR1 performed in the previous works of our group, as well as the in silico results obtained from the current study, a total of 47 natural products were tested against the target enzymes. […] The concentration-effect curves for the IC50 and EC50 values that were obtained in the present study are depicted in Supplementary Materials Figures S21–S42.
(§2) The used TbPTR1 concentration was 3.23 mg/mL, with a specific activity of 0.03 U/mg. The measurements were carried out using the enzyme’s individual saturating concentrations for folic acid (8 μM) and NADPH (150 μM) in Buffer A (50 mM Tris/HCl (pH 7.6), 250 mM NaCl). For LmPTR1, the protein concentration was 5.02 mg/mL and the specific activity was calculated to be 0.29 U/mg. Buffer B (50 mM NaH2PO4 (pH 6.0), 100 mM NaCl) was used for all LmPTR1 measurements and the saturating concentrations amounted to 50 μM of folic acid and 200 μM of NADPH. The saturating conditions of the PTR1 enzymes were determined using the diagrams depicted in Figures S16 and S18 in the Supplementary Materials.
(§3) The inhibitory effect of the selected natural products was investigated by testing the DMSO solution of each compound at a constant concentration of 100 μM for TbPTR1 and 50 μM for LmPTR1, TbDHFR, and LmDHFR, as well as hDHFR. The concentrations of the cofactor and substrates were set at the previously determined saturating conditions (Section 4.2.5). Each test compound was incubated for 20 min with the respective enzyme and NADPH to ensure a sufficient interaction time before the reaction was induced by the addition of the substrate. The enzymatic activity was determined in duplicates and correlated with a reference that contained just DMSO, instead of an inhibitor. The enzymatic activity of the reference was normalized to 100%.
(§4) The half-maximal inhibitory concentration (IC50) of the natural products was determined in triplicate, using at least five different inhibitor concentrations against a reference containing no inhibitor. The enzymatic activity was documented and analyzed and the IC50 value was determined by nonlinear regression using GraphPad Prism 9 (GraphPad Software Inc., La Jolla, CA, USA).

[2] = target: T2, TbDHFR (Trypanosoma brucei brucei, UniProt Q27783); test: Spectrophotometric enzyme inhibition assay, recombinant TbDHFR
T2 construct: pET 11D::TbDHFRHis vector design for the recombinant overexpression of TbDHFR in E. coli; His; made in house; host or cells: E. coli BL21(DE3), vector pET 11D::TbDHFRHis
Method: Based on the in vitro assays against TbPTR1 and LmPTR1 performed in the previous works of our group, as well as the in silico results obtained from the current study, a total of 47 natural products were tested against the target enzymes.
The saturating conditions for TbDHFR and LmDHFR were determined using the diagrams depicted in Figures S17 and S19 in the Supplementary Materials.
as §3, §4

[3] = target: T3, LmPTR1 (Leishmania major, UniProt Q01782); test: Spectrophotometric enzyme inhibition assay, recombinant LmPTR1
T3 construct: His6 (N); made in house; host or cells: E. coli BL21 (DE3), vector pET 15b::LmPTR1His (strain from the group of M. Paola Costi, Modena)
T3 sequence (Q01782 1-288): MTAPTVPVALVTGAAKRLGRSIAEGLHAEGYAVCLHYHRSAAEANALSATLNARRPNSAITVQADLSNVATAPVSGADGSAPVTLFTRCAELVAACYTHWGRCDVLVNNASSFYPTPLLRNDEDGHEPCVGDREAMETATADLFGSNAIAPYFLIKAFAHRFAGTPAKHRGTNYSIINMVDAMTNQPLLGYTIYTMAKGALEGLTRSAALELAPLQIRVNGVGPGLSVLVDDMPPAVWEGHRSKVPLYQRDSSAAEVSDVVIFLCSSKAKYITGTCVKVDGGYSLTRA
Method: as §1, §2, §3, §4

[4] = target: T4, LmDHFR (Leishmania major, UniProt P07382); test: Spectrophotometric enzyme inhibition assay, recombinant LmDHFR
T4 construct: The DNA fragment encoding LmDHFR was amplified by Phusion DNA polymerase; His6 (N); made in house; host or cells: E. coli BL21(DE3), vector pET 11D::LmDHFRHis
T4 sequence (P07382 26-229 limits assumed): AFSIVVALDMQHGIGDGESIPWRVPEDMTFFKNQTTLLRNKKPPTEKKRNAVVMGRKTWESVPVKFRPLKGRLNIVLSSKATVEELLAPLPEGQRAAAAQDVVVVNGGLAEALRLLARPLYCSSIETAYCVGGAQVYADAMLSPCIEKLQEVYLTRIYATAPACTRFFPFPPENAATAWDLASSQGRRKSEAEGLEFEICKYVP
Method: as §1
The TbDHFR concentration was measured to be 0.04 mg/mL and a specific activity of 38.1 U/mg was calculated. The concentration of LmDHFR was 0.05 mg/mL with a specific activity of 56.2 U/mg. All measurements were carried out using the saturating concentrations for dihydrofolate (50 μM) and NADPH (150 μM) in Buffer C (50 mM Tris/HCl (pH 7.6), 250 mM NaCl, 10 mM BME). The saturating conditions for TbDHFR and LmDHFR were determined using the diagrams depicted in Figures S17 and S19 in the Supplementary Materials.
as §3, §4

[5] = target: T5, hDHFR (Homo sapiens, UniProt P00374); test: Spectrophotometric enzyme inhibition assay, recombinant hDHFR (selectivity); conditions: for inhibition at 50 µM: set compound concentration of 50 μM, read-out: relative inhibition of hDHFR
T5 construct: His; host or cells: E. coli BL21 (DE3), vector pET 15b::hDHFRHis
T5 sequence (P00374 1-187): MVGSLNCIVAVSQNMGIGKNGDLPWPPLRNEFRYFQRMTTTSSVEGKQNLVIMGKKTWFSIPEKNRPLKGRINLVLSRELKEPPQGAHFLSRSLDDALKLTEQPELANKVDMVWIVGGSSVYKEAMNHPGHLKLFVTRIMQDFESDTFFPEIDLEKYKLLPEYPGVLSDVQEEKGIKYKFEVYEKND
Method: For 15 compounds, there was enough substance available to be tested in selectivity studies against hDHFR.
The used hDHFR concentration was 0.64 mg/mL, with a specific activity of 0.62 U/mg. All measurements were carried out using the saturating concentrations for dihydrofolate (100 μM) and NADPH (50 μM) in Buffer C (50 mM Tris/HCl (pH 7.6), 250 mM NaCl, 10 mM BME). The saturating conditions for hDHFR were determined using the diagrams depicted in Figure S20 in the Supplementary Materials.
as §3, §4

[6] = target: T1, TbPTR1; test: Dilution assay for reversible/irreversible inhibition of TbPTR1; conditions: inhibitor concentration near IC50
Source text: The catalytic center of TbPTR1 contains a cysteine residue (TbCys168) in close proximity to the substrate/inhibitor binding site. In our previous publication, we mentioned the possibility that Sesquiterpene Lactones 1 and 2 might interact as Michael acceptors with TbCys168 by covalent bond formation with its thiol group. Therefore, we have now subjected a selection of natural product inhibitors containing Michael acceptors (1, 2, 5, 17) to initial testing for irreversible inhibition, according to the dilution method described by Bisswanger (see Section 4.2.9).
In this method, the enzyme activity of the respective enzyme-inhibitor mixture is measured before and after a defined dilution (in this study, 1:2). In the absence of an inhibitor, dilution decreases the enzyme activity proportionally to the dilution factor. […] A reversible inhibitor, on the other hand, will dissociate upon dilution, resulting in a weaker decrease in activity than what corresponds to the dilution effect. In the presence of Inhibitors 1 and 2, the decrease in TbPTR1 activity upon the 1:2 dilution was almost proportional to the dilution factor, i.e., only 9.5% and 6.8% activity, respectively, were recovered compared to the reference. This would indeed support an irreversible mechanism of inhibition. […] However, further investigations on these compounds’ mechanisms of inhibition are under way.
To assign an either reversible or irreversible inhibition mechanism to selected compounds, the enzymatic activity of an enzyme-inhibitor mixture was determined before and after a defined dilution, using the reaction conditions described in Section 4.2.5 [16].
Two equivalent solutions with the respective enzyme and inhibitor combination were prepared, one of them being diluted with buffer in a 1:2 ratio shortly before the reaction was started by adding the substrate. The respective inhibitor concentration was set near the IC50 value. The substrate and cofactor concentrations were kept constant in both reaction mixtures. All measurements were carried out in duplicates against a reference containing DMSO instead of the inhibitor. […] If a reversible inhibitor was present, a higher degree of activity recovery (>>10%) could be observed than what corresponds to the dilution factor due to the partial dissociation of the inhibitor from the enzyme upon dilution. The percentual changes in the enzymatic activity of the undiluted and diluted test solution were compared and evaluated to decide the mechanism of inhibition.

T2 sequence (Q27783 28-238 limits assumed): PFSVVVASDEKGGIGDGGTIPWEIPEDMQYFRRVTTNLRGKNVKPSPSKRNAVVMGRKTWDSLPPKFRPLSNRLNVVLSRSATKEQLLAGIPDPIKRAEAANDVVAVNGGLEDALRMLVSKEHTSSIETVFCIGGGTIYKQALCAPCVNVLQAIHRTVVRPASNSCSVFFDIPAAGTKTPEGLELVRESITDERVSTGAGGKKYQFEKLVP

SMILES | IC50 ([1]; read-out: IC50 TbPTR1) [µM] | IC50 ([2]; read-out: IC50 TbDHFR) [µM] | IC50 ([3]; read-out: IC50 LmPTR1) [µM] | IC50 [5] [µM] | also measured
OC[C@H]1O[C@@H](Oc2c(O)cc(O)cc2/C=C/c2ccc(O)cc2)[C@H](O)[C@@H](O)[C@@H]1O [Compound 10] | 83.6 | > 50 | > 50 | – | IC50 ([4]; read-out: IC50 LmDHFR): > 50 µM
CCC/C=C\C/C=C\CCCCCCCc1cccc(O)c1C(=O)O [Compound 11] | 20.1 | 0.2 | 10.2 | 2.4 | IC50 ([4]; read-out: IC50 LmDHFR): 2.6 µM; inhibition at 50 µM [5]: > 50%
C=CC/C=C\C/C=C\CCCCCCCc1cccc(O)c1C(=O)O [Compound 12] | 21.7 | – | – | – | –
COc1c(O)cc2c(=O)c3c(O)cc(O)c(CC=C(C)C)c3oc2c1CC=C(C)C [Compound 13] | 74.4 | 0.6 | – | – | –
CC(C)=CCc1c(O)cc2oc3cc(O)c(O)c(CC=C(C)C)c3c(=O)c2c1O [Compound 14, g-mangostin] | – | – | – | 2.7 | IC50 [1]: 71 µM; IC50 [2]: 0.2 µM; IC50 [3]: 10 µM; IC50 [4]: 1.5 µM; inhibition at 50 µM [5]: > 50%
CC(C)=CCC/C(C)=C/COc1ccc2oc3cc(O)cc(O)c3c(=O)c2c1 [Compound 15] | – | 2.9 | > 50 | – | EC50 [1]: 32.4 µM
CC(C)=CCc1c(O)ccc(C(=O)CCc2ccc(O)cc2)c1O [Compound 16] | 64.6 | 11.7 | > 50 | – | –
O=c1[nH]c(=O)n([C@@H]2O[C@H](CO)[C@@H](O)[C@H]2O)c2nc(-c3ccc(Cl)cc3)cnc12 [Compound 18] | 58.6 | > 50 | – | – | –
COc1ccc2c(c1)CCN=C2Cc1cc(OCc2ccccc2)c(OC)cc1C [Compound 19] | 75.1 | > 50 | – | – | –
CCC(C)C(=O)c1c(O)c(C/C=C(\C)CCC=C(C)C)c(O)c2c([C@H](CC)OC(C)=O)cc(=O)oc12 (stereo partly drawn) [Compound 20, surangin B] | 28.3 | 2.9 | – | > 50 | EC50 ([3]; read-out: EC50 LmPTR1 (footnote a)): 35.1 µM; EC50 ([4]; read-out: EC50 LmDHFR (footnote a)): 4.7 µM
COc1c(CC=C(C)C)c(O)c([C@H](CC(C)C)c2c(O)c(CC=C(C)C)c(O)c(C(C)=O)c2O)c(O)c1C(C)=O [Compound 21, acrovestone] | – | 2.1 | > 50 | 19.8 | EC50 [1]: 36.8 µM; inhibition at 50 µM [5]: > 50%
COc1cc(C2OC(=O)C3C(c4ccc(O)c(OC)c4)OC(=O)C23)ccc1O (stereo not drawn) [Compound 22] | – | > 50 | 30.2 | > 50 | EC50 [1]: 37.8 µM; IC50 ([4]; read-out: IC50 LmDHFR): > 50 µM
COc1cc(-c2oc3c(OC)c(O)cc(O)c3c(=O)c2OC)c(OC)c(OC)c1OC [Compound 23, 5,7-dihydroxy-3,3′,4′,5′,6′,8-hexamethoxyflavone] | – | – | – | – | TbPTR1 activity recovered upon 1:2 dilution compared to the reference [6]: about 33%
